Source: patent US8557864B2, “Agent having neurotrophic factor-like activity” (Nagoya Industrial Science Research Institute, priority 2007, dated 2013)

Tests used:
Format in all cases: in vivo
[1] = tested on: mice under chronic mild stress; experiment: Tail suspension test, compound given at the same time as stress; details: 20, 100 and 500 μg/kg intraperitoneally once per day with stress; stressed 3 week- and 1 week-administration groups
Procedure: Mice under established chronic mild stress (hereinafter referred to as “stress”) were used for a depression and anxiety disorder-like model animal. Stress was applied as follows. 7-week-old male ddY strain mice fed in one cage for 4 mice were used and first subjected to forced swimming for 15 minutes. Then, the mice were fed in a sloped cage for 2 days, and then rested in a normal cage for 1 day. Then, the mice were fed in a dirt cage moisturized with 200 mL of water for 1 day and then rested in a normal cage for 1 day. Then, the mice were fed in a rotational cage that rotated at 180 rpm for 1 day, and then rested in a normal cage for 1 day. […] For 0 μg/kg administration examples of controls, a phosphoric acid buffer containing 0.1% DMSO (controls were expressed as “PBS” or “0 μg/kg” in the figure shown below) was administered in an amount of 0.25 mL to each of a stressed example and a non-stressed example. […]
A site of 1 cm from the tip of the tail of a mouse was grasped by a hand, being apart from a floor from 10 cm, and an immobility time in suspension for 6 minutes was measured for 2 hours. Since the immobility time prolongs when the mouse has a depressive symptom (condition), a level of the depressive symptom (condition) can be evaluated from the length of the immobility time. […]

[2] = tested on: mice under chronic mild stress; experiment: Tail suspension test after completion of stress
Procedure: A site of 1 cm from the tip of the tail of a mouse was grasped by a hand, being apart from a floor from 10 cm, and an immobility time in suspension for 6 minutes was measured for 2 hours. Since the immobility time prolongs when the mouse has a depressive symptom (condition), a level of the depressive symptom (condition) can be evaluated from the length of the immobility time. FIGS. 6 and 7 show the results.
Example 2 is a behavior test in which the compound 8 was administered to a mouse as well as stress was applied and a suppression effect of the compound 8 on depressive and anxiety symptoms of the mouse was examined. On the other hand, the present example is a behavior test in which only stress was applied for 3 weeks without administering the compound 8 and stress was completed and a therapeutic effect of the compound 8 on depressive and anxiety symptoms of a mouse after removing stress was examined. Stress was applied to a mouse in the same manner as in Example 2. […]

mice = experiment: Voluntary alternation behavior test (Y-maze test) of mice administered with trimethyltin
Procedure: The voluntary alternation behavior test (Y-maze test) is one kind of a behavior test using a Y-shaped maze constituted with three arms. First, a mouse is placed on the tip of one arm out of the three arms, letting the mouse freely explore in the maze over 8 minutes, and arms where the mouse transferred are recorded in order. Then, the number of times of transferring to each arm (total arm selection number (total arm entries)) and the number of sequentially selecting three different arms (number of alternation behavior (number of spontaneous behavior)) are counted.
Trimethyltin (hereinafter referred to as “TMT”) is an organic metal compound having neurotoxicity, and acute nerve cell death is cased particularly in granular nerve cells of the hippocampus dentate gyrus, which thus affects memory and learning abilities of a mouse.
The voluntary alternation tests (Y-maze tests) were performed on 1) test groups to which the compound 8 was singly administered and 2) test groups to which TMT and the compound 8 were administered. In the test groups to which the compound 8 was singly administered, the compound 8 was dissolved in 0.1% DMSO to adjust a concentration so as to have each of the doses of 100 and 500 μg/kg and intraperitoneally injected to 6 mice in every administration example each in a dose of 0.25 mL. In 0 μg/kg weight administration examples of controls, 0.25 mL of a phosphoric acid buffer containing 0.1% DMSO was intraperitoneally injected in each time. The voluntary alternation tests (Y-maze tests) were performed on each of the administration groups after the elapse of 2 hours from intraperitoneal administration. In the test group in which TMT and the compound 8 were administered, TMT (2 mg/kg weight) was intraperitoneally administered to a mouse, and the compound 8 was intraperitoneally administered in the same manner as the test groups in which the compound 8 was singly administered after 2 days have passed, and the voluntary alternation test (Y-maze test) was performed after the elapse of 2 hours. FIG. 32 show the results. Significance tests were performed in a Turkey's test (*, ##) and a Student's t-test (++). “DAEE” denotes the compound 8.

## CCCCCCC/C=C/C(=O)OCC [Compound 8, trans-2-decenoic acid ethyl ester]
[1]
  immobility time, stressed vs non-stressed example: no significant difference
[2]; 500 μg/kg, 1 week-administration groups after completion of stress
  immobility time, stressed vs non-stressed example: no significant difference
[2]; all administration examples, 2 week-administration groups after completion of stress
  immobility time, stressed vs non-stressed example: no significant difference
mice; 100 and 500 μg/kg intraperitoneally, 2 hours before test, with or without TMT
  total arm entries (motor function): no difference
mice; 100 and 500 μg/kg intraperitoneally, test after 2 hours
  voluntary alternation behavior, compound singly administered: significantly increased
mice; TMT 2 mg/kg intraperitoneally, compound 8 after 2 days, test after 2 hours
  voluntary alternation behavior in TMT-treated mice: suppressed decrease
